Measured values as given in patent US20140309210A1, “INDAZOLE COMPOUNDS, COMPOSITIONS AND METHODS OF USE THEREOF” (Genentech, Inc., priority 2011, published 2014).

Biological target: T1, purified ITK (Invitrogen PV3875) (Homo sapiens, UniProt Q08881)
T1 construct: purchased Invitrogen PV3875
T1 sequence (Q08881 1-620): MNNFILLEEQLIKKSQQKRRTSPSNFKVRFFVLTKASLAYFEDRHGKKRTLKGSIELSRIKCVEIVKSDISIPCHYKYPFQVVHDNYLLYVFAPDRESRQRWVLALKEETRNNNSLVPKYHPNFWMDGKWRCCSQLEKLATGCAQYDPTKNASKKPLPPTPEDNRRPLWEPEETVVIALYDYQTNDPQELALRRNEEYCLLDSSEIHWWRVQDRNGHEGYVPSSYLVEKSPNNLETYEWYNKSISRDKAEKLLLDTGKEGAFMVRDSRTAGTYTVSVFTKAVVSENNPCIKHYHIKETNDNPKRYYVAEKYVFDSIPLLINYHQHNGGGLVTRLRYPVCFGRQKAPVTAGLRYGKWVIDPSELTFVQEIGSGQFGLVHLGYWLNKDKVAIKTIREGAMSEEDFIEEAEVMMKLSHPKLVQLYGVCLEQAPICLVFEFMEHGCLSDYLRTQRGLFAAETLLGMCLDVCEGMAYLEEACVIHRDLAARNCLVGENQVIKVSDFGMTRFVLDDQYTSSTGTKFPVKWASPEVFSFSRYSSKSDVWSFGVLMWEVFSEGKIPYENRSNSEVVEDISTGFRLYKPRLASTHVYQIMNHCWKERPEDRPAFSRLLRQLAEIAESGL
Assay: ITK peptide phosphorylation assay (Caliper LabChip or LCMS)
Type: biochemical
Procedure: The ability of purified ITK (Invitrogen PV3875) to catalyze peptide phosphorylation is monitored using a Caliper LabChip 3000 microfluidic unit (Caliper assay) or by liquid chromatography-mass spectrometry (LCMS) using a Waters Acquity system (LCMS assay). […] Reactions are quenched by the addition of 2,2′,2″,2′″-(ethane-1,2-diyldinitrilo)tetraacetic acid (50 mM final). Non-phosphorylated substrate and phosphorylated product peptides are separated and quantified using a Caliper LabChip 3000 instrument. […] Reactions are quenched by the addition of trichloroacetic acid (5% v/v final). Non-phosphorylated substrate and phosphorylated product peptides are separated by ultra performance LC and detected by a coupled triple quadrupole MS device applying multiple reaction monitoring (MRM) for quantification. The area of the MRM-extracted mass signal is used to assess the inhibition by test compounds. Equilibrium dissociation constant (Ki) values for ITK inhibitors are calculated from plots of activity vs. inhibitor concentration using Morrison's quadratic equation that accounts for the potential of tight binding, and by also applying the conversion factor that accounts for competitive inhibition and the concentration of ATP used in the assay relative to its apparent Michaelis constant (Km,app).

[1] = Table 2, Examples 1-140, class symbols
[2] = Table 3, specific values for certain examples

Molecule | Ki (Table 1, Examples 141-279) | Ki [1] | Ki [2]
6-(6-methoxy-3- pyridyl)-N-[1-(3- pyridylmethyl)py- razol-4-yl]-1H- indazole-3- carboxamide [Example 244] | 32.3 nM |  | 
N#Cc1cccc(Cn2cc(NC(=O)c3n[nH]c4ccc(Cl)cc34)cn2)c1 [Example 1, 5-chloro-N-(1-(3-cyanobenzyl)-1H-pyrazol-4-yl)-1H-indazole-3-carboxamide] |  | 1 to 100 nM | 37.7 nM
Cc1ccc2[nH]nc(C(=O)Nc3cnn(Cc4cccc(C#N)c4)c3)c2c1 [Example 2, N-(1-(3-cyanobenzyl)-1H-pyrazol-4-yl)-5-methyl-1H-indazole-3-carboxamide] |  | 1 to 100 nM | 16.5 nM
N#Cc1cccc(Cn2cc(NC(=O)c3n[nH]c4cc(F)ccc34)cn2)c1 [Example 3, N-(1-(3-cyanobenzyl)-1H-pyrazol-4-yl)-6-fluoro-1H-indazole-3-carboxamide] |  | 1 to 100 nM | 18.5 nM
COc1cccc2[nH]nc(C(=O)Nc3cnn(Cc4cccc(C#N)c4)c3)c12 [Example 4, N-(1-(3-cyanobenzyl)-1H-pyrazol-4-yl)-4-methoxy-1H-indazole-3-carboxamide] |  | > 100 nM | 1300 nM
COc1cccc2c(C(=O)Nc3cnn(Cc4cccc(C#N)c4)c3)n[nH]c12 [Example 5, N-(1-(3-cyanobenzyl)-1H-pyrazol-4-yl)-7-methoxy-1H-indazole-3-carboxamide] |  | > 100 nM | > 3500 nM
COc1ccc2c(C(=O)Nc3cnn(Cc4cccc(C#N)c4)c3)n[nH]c2c1 [Example 6, N-(1-(3-cyanobenzyl)-1H-pyrazol-4-yl)-6-methoxy-1H-indazole-3-carboxamide] |  | 1 to 100 nM | 
N#Cc1cccc(Cn2cc(NC(=O)c3n[nH]c4ccc(F)cc34)cn2)c1 [Example 7, N-(1-(3-cyanobenzyl)-1H-pyrazol-4-yl)-5-fluoro-1H-indazole-3-carboxamide] |  | 1 to 100 nM | 
COc1ccc2[nH]nc(C(=O)Nc3cnn(Cc4cccc(C#N)c4)c3)c2c1 [Example 8, N-(1-(3-cyanobenzyl)-1H-pyrazol-4-yl)-5-methoxy-1H-indazole-3-carboxamide] |  | 1 to 100 nM | 
O=C(Nc1cnn(Cc2cccc3cccnc23)c1)c1n[nH]c2cc(-c3cn[nH]c3)ccc12 [Example 9, 6-(1H-Pyrazol-4-yl)-1H-indazole-3-carboxylic acid (1-quinolin-8-ylmethyl-1H-pyrazol-4-yl)-amide] |  | 1 to 100 nM | 7.42 nM
COC(=O)c1cccc(Cn2cc(NC(=O)c3n[nH]c4cc(-c5cn[nH]c5)ccc34)cn2)c1 [Example 10, 3-(4-{[6-(1H-Pyrazol-4-yl)-1H-indazole-3-carbonyl]-amino}-pyrazol-1-ylmethyl)-benzoic acid methyl ester] |  | 1 to 100 nM | 
O=C(Nc1cnn(CCc2ccccc2)c1)c1n[nH]c2cc(-c3cn[nH]c3)ccc12 [Example 11, 6-(1H-Pyrazol-4-yl)-1H-indazole-3-carboxylic acid (1-phenethyl-1H-pyrazol-4-yl)-amide] |  | 1 to 100 nM | 
NC(=O)c1ccc(Cn2cc(NC(=O)c3n[nH]c4cc(-c5cn[nH]c5)ccc34)cn2)cc1 [Example 12, 6-(1H-Pyrazol-4-yl)-1H-indazole-3-carboxylic acid [1-(4-carbamoyl-benzyl)-1H-pyrazol-4-yl]-amide] |  | 0.01 to 1 nM | 
Cc1n[nH]c(C)c1CCn1cc(NC(=O)c2n[nH]c3cc(-c4cn[nH]c4)ccc23)cn1 [Example 13, 6-(1H-Pyrazol-4-yl)-1H-indazole-3-carboxylic acid {1-[2-(3,5-dimethyl-1H-pyrazol-4-yl)-ethyl]-1H-pyrazol-4-yl}-amide] |  | 1 to 100 nM | 
O=C(Nc1cnn(Cc2noc3ccccc23)c1)c1n[nH]c2cc(-c3cn[nH]c3)ccc12 [Example 14, 6-(1H-Pyrazol-4-yl)-1H-indazole-3-carboxylic acid (1-1,2-benzisoxazol-3-ylmethyl-1H-pyrazol-4-yl)-amide] |  | 1 to 100 nM | 2 nM
CNC(=O)c1ccc(Cn2cc(NC(=O)c3n[nH]c4cc(-c5cn[nH]c5)ccc34)cn2)o1 [Example 15, 6-(1H-Pyrazol-4-yl)-1H-indazole-3-carboxylic acid [1-(5-methylcarbamoyl-furan-2-ylmethyl)-1H-pyrazol-4-yl]-amid] |  | 1 to 100 nM | 
O=C(Nc1cnn(Cc2cc(-c3ccccc3)on2)c1)c1n[nH]c2cc(-c3cn[nH]c3)ccc12 [Example 16, 6-(1H-Pyrazol-4-yl)-1H-indazole-3-carboxylic acid [1-(5-phenyl-isoxazol-3-ylmethyl)-1H-pyrazol-4-yl]-amide] |  | 1 to 100 nM | 6.9 nM
O=C(Nc1cnn(Cc2nc3ccccc3s2)c1)c1n[nH]c2cc(-c3cn[nH]c3)ccc12 [Example 17, 6-(1H-Pyrazol-4-yl)-1H-indazole-3-carboxylic acid (1-benzothiazol-2-ylmethyl-1H-pyrazol-4-yl)-amide] |  | 1 to 100 nM | 1.8 nM
O=C(Nc1cnn(Cc2cc(CN3CCOCC3)on2)c1)c1n[nH]c2cc(-c3cn[nH]c3)ccc12 [Example 18, 6-(1H-Pyrazol-4-yl)-1H-indazole-3-carboxylic acid [1-(5-morpholin-4-ylmethyl-isoxazol-3-ylmethyl)-1H-pyrazol-4-yl]-amide] |  | 1 to 100 nM | 
O=C(Nc1cnn(Cc2cn3ccccc3n2)c1)c1n[nH]c2cc(-c3cn[nH]c3)ccc12 [Example 19, 6-(1H-Pyrazol-4-yl)-1H-indazole-3-carboxylic acid (1-imidazo[1,2-a]pyridin-2-ylmethyl-1H-pyrazol-4-yl)-amide] |  | 1 to 100 nM | 2.3 nM
O=C(Nc1cnn(Cc2csc(-c3ccccc3)n2)c1)c1n[nH]c2cc(-c3cn[nH]c3)ccc12 [Example 20, 6-(1H-Pyrazol-4-yl)-1H-indazole-3-carboxylic acid [1-(2-phenyl-thiazol-4-ylmethyl)-1H-pyrazol-4-yl]-amide] |  | 1 to 100 nM | 
CC(C)c1nc(Cn2cc(NC(=O)c3n[nH]c4cc(-c5cn[nH]c5)ccc34)cn2)cs1 [Example 21, 6-(1H-Pyrazol-4-yl)-1H-indazole-3-carboxylic acid [1-(2-isopropyl-thiazol-4-ylmethyl)-1H-pyrazol-4-yl]-amide] |  | 1 to 100 nM | 
O=C(Nc1cnn(Cc2cccc(C(=O)N3CCC(O)CC3)c2)c1)c1n[nH]c2cc(-c3cn[nH]c3)ccc12 [Example 22, 6-(1H-Pyrazol-4-yl)-1H-indazole-3-carboxylic acid {1-[3-(4-hydroxy-1-piperidine-1-carbonyl)-benzyl]-1H-pyrazol-4-yl}amide] |  | 1 to 100 nM | 
O=C(Nc1cnn(Cc2csc(-c3cccs3)n2)c1)c1n[nH]c2cc(-c3cn[nH]c3)ccc12 [Example 23, 6-(1H-Pyrazol-4-yl)-1H-indazole-3-carboxylic acid [1-(2-thiophen-2-yl-thiazol-4-ylmethyl)-1H-pyrazol-4-yl]-amide] |  | 1 to 100 nM | 
O=C(Nc1cnn(Cc2csc(-c3ccccn3)n2)c1)c1n[nH]c2cc(-c3cn[nH]c3)ccc12 [Example 24, 6-(1H-pyrazol-4-yl)-N-[1-[[2-(2-pyridyl)thiazol-4-yl]methyl]pyrazol-4-yl]-1H-indazole-3-carboxamide] |  | 0.01 to 1 nM | 
C#Cc1cccc(Cn2cc(NC(=O)c3n[nH]c4cc(-c5cn[nH]c5)ccc34)cn2)c1 [Example 25, N-[1-[(3-ethynylphenyl)methyl]pyrazol-4-yl]-6-(1H-pyrazol-4-yl)-1H-indazole-3-carboxamide] |  | 1 to 100 nM | 
O=C(Nc1cnn(Cc2cscn2)c1)c1n[nH]c2cc(-c3cn[nH]c3)ccc12 [Example 26, 6-(1H-Pyrazol-4-yl)-1H-indazole-3-carboxylic acid (1-thiazol-4-ylmethyl-1H-pyrazol-4-yl)-amide] |  | 1 to 100 nM | 
N#Cc1ccc(Cn2cc(NC(=O)c3n[nH]c4cc(-c5cn[nH]c5)ccc34)cn2)s1 [Example 27, 6-(1H-Pyrazol-4-yl)-1H-indazole-3-carboxylic acid [1-(5-cyano-thiophen-2-ylmethyl)-1H-pyrazol-4-yl]-amide] |  | 0.01 to 1 nM | 
Nc1cc(Cn2cc(NC(=O)c3n[nH]c4cc(-c5cn[nH]c5)ccc34)cn2)ccn1 [Example 28, 6-(1H-Pyrazol-4-yl)-1H-indazole-3-carboxylic acid [1-(2-amino-pyridin-4-ylmethyl)-1H-pyrazol-4-yl]-amide] |  | 1 to 100 nM | 
NC(=O)c1cccc(Cn2cc(NC(=O)c3n[nH]c4cc(-c5cn[nH]c5)ccc34)cn2)c1 [Example 29, 6-(1H-Pyrazol-4-yl)-1H-indazole-3-carboxylic acid [1-(3-carbamoyl-benzyl)-1H-pyrazol-4-yl]-amide] |  | 0.01 to 1 nM | 
